Values of other authors as cited in patent US5846995A, “Substituted 1, 2, 3, 4-tetrahydro-2-dibenzofuranamines and 2-amino-cyclohepta (6, 7-B) Benzofurans” (priority 1997, dated 1998).

Conditions: background

**Q.** With `CNS(=O)(=O)Cc1ccc2[nH]cc(CCN(C)C)c2c1.O=C(O)CCC(=O)O` [Compound I, 3-[2-(dimethylamino)ethyl]-N-methyl-1H-indole-5-methanesulfonamide butane-1,4-dioate (1:1)] as the compound, how does the bioavailability read?
**A.** The bioavailability was “low bioavailability”.
